# Assay results as given in PMC11901700, “A Sweet Almond Globulin Multifunctional Peptide: Identification, In Silico Screening, Restraint Mechanisms to Keap1 and ACE, and Antihypertensive and Ferrous Transport Efficiency” (Nutrients, 2025).
# pIC50: −log10 of the molar value. Where “and” joins values, the source holds several entries; their conditions need not be identical. Identical values can stand only once. Like-named read-outs stand apart in the source and are kept apart here. Where no end group is shown, it is not given here.
# What was measured:
# ABTS+ quenching ability = assay type: physicochemical; details: at 100 μg/mL; absorbance at 734 nm; mean ± standard error
# Protocol: The ABTS^+ quenching ability was determined following the same procedures described by Vásquez et al.. The same system without the sample was the control, and glutathione (0.1 mg/mL) was the comparison. The percentage of reduction in absorbance at 734 nm was defined as the ABTS^+ scavenging ability of samples.
# [1] = Hydroxyl radical scavenging activity (β-deoxyribose oxidation method); assay type: physicochemical; details: at 100 μg/mL
# Protocol: (§1) As described by Wang et al. and Vásquez et al., the hydroxyl (·OH) and superoxide ( O2−· ) radicals’ scavenging activity was measured using the β-deoxyribose oxidation and pyrogallol auto-oxidation methods, respectively. The comparison was conducted when the samples were replaced by glutathione (0.1 mg/mL).
# [2] = Superoxide radical scavenging activity (pyrogallol auto-oxidation method); assay type: physicochemical; details: at 100 μg/mL
# Protocol: as §1
# [3] = Reducing power (potassium ferricyanide method); assay type: physicochemical; details: at 100 μg/mL; absorbance at 700 nm
# Excerpt: The potassium ferricyanide method was employed to determine the reducing power of the SAGH peptides at the same conditions reported by Wang et al., where the absorbance at 700 nm represented the reducing power.
# [4] = Gastrointestinal stability of peptide–ferrous chelate (ferrous solubility in simulated digestion); assay type: in vitro ADME
# Protocol: Next, the intestinal digestive fluid was added, and digestion was continued at pH 6.8 for 2 h in the EDZF-C002 thermostatic vibrator ([…], 175 rpm).
# ACE (from rabbit lungs) [5] = biological target: T1, ACE (from rabbit lungs) (Oryctolagus cuniculus, UniProt P12822); set-up: method as in 3 sources, ref 29 = [29]; doi:10.1111/j.1365-2621.2001.tb04614.x; 29. Nielsen P.M. Petersen D. Dambmann C. Improved method for determining food protein degree of hydrolysis J. Food Sci. 2001 66 642 646 10.1111/j.1365-2621.2001.tb04614.x ||| ref 43 = [43]; PMID 38470110; doi:10.1021/acs.jafc.4c00829; 43. Martineau-Côté D. Achouri A. Karboune S. L’Hocine L. Antioxidant and Angiotensin-Converting Enzyme Inhibitory Activity of Faba Bean-Derived Peptides After In Vitro Gastrointestinal Digestion: Insi ||| ref 10 = [10]; PMID 36493485; doi:10.1016/j.foodchem.2022.135082; 10. Fadimu G.J. Gan C.Y. Olalere Q.A. Farahnaky A. Gill H. Truong T. Novel antihypertensive peptides from lupin protein hydrolysate: An in-silico identification and molecular docking studies Food Chem; details: read-out: ACE inhibition IC50 (literature), cited from earlier work
# T1 construct: ACE (0.1 U, from rabbit lungs, purity > 99.7%, CAS: 9015-82-1) was obtained from Sigma-Aldrich; purchased Sigma-Aldrich (St. Louis, MO, USA); host or cells: rabbit lung tissue
# T1 sequence (P12822 34-1310): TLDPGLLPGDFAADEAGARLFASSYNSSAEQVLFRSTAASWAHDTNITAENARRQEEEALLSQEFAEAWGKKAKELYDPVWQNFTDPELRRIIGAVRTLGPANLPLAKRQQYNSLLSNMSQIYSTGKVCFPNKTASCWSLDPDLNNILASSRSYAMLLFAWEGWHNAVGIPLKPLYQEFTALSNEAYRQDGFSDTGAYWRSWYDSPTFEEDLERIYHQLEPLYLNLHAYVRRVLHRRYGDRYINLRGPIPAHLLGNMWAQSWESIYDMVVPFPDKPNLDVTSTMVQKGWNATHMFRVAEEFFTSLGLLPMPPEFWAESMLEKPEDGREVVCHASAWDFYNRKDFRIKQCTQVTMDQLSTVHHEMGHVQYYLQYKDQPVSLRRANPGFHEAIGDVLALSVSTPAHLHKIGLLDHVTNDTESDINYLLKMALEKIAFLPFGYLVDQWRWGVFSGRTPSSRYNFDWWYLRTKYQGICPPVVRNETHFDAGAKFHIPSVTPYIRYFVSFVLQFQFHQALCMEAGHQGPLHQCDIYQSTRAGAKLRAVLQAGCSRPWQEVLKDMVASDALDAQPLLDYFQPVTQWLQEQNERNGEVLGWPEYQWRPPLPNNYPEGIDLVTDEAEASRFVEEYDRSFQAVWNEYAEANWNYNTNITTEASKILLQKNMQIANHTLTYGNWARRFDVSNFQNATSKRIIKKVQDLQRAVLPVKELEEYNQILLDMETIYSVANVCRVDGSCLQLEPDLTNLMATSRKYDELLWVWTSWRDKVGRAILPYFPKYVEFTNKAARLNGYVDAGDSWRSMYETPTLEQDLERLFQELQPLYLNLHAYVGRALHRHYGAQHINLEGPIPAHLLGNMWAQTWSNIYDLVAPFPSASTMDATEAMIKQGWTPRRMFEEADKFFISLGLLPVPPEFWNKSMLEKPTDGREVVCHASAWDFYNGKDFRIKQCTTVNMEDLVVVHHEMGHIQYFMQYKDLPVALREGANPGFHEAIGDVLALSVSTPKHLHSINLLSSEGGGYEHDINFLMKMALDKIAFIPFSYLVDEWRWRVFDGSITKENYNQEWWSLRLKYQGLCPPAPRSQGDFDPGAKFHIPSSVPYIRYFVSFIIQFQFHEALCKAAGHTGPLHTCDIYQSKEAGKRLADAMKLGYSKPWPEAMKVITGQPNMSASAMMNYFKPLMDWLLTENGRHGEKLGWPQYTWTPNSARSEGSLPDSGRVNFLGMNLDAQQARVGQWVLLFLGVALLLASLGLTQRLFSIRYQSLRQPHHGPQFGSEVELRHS
# [6] = assay not specified, cited from earlier work
# Excerpt: Alternatively, the guanidine of Arg, imidazolyl in His, the free hydroxyl group of Ser, the cyclic amino group of Pro, and the phenolic hydroxyl group of Tyr can quickly quench free radicals, showing excellent antioxidant ability. Moreover, the sulfhydryl group in Cys or Met can inhibit free radicals’ chain reaction by chelating metal ions, which are catalysts for oxidation reactions. Therefore, the residues, including Tyr, Pro, Val, and Met, were responsible for the antioxidant activity of […]. Furthermore, the repeated amino acid sequences “GGG” can enhance the antioxidant ...
# [7] = cited from earlier work
# Excerpt: The ACE inhibition and antioxidant activities of […] were stable during gastrointestinal digestion (Figure 3A and Table 2), which is mainly ascribed to the Pro, Val, and Met residues. […] Therefore, the Pro and Val residues of […] were mainly responsible for its gastrointestinal stability. Peptides rich in Pro and br ...
# ACE (from rabbit lungs) [8] = biological target: T1, ACE (from rabbit lungs); experiment: ACE inhibitory ability (hippuric acid method); assay type: biochemical; details: N = 3
# Excerpt: The hippuric acid method was used to measure the samples’ inhibitory ability towards ACE, following the same procedures as Zheng et al.. The absorbance at 228 nm was the hippuric acid content and represented ACE activity; therefore, the inhibitory ability of samples towards ACE was defined as the percentage of reduction in the absorption at 228 nm between the control and sample groups. Moreover, the ACE inhibitory kinetic of SAGH peptides was investigated by employing a Lineweaver–Burk plot with N-hippuryl-L-histidyl-L-leucine (HHL, 0.13–1.32 mmol/L) as the substrate.
# (§2) As described by Wu et al., the simulative gastric digestive fluid consisted of sodium chloride (0.18 mol/L), ultrapure water (180 mL), and 0.40 mg/mL of pepsin. The simulation intestinal digestive juice was composed of NaHCO3, ([…]), bile salt (3 g/100 mL), pancreatin (0.35 mg/mL), and 180 mL of ultrapure water. The antihypertensive and antioxidant SAGH peptides (5 mg/mL, 60 mL) were first hydrolyzed using 150 mL of simulative gastric fluid at 37 °C and 140 rpm for 90 min. The mixture was adjusted to pH 7.0, and 180 mL of the simulative intestinal hydrolysis fluid was added and stirred at 37 °C for 2 h. After boiling for 6 min, the mixture was cooled with running water to room temperature. The ACE inhibition capacity and antioxidant ability of the treated SAGH peptides were detected and compared to those of the […] SAGH peptides.
# [9] = Gastrointestinal stability of SAGH peptide (simulated gastric and intestinal digestion); assay type: in vitro ADME; details: peptide 5 mg/mL; simulated gastric fluid (pepsin 0.40 mg/mL) 37 °C, 140 rpm, 90 min, then pH 7.0 intestinal fluid (pancreatin 0.35 mg/mL, bile salt 3 g/100 mL) 37 °C 2 h; read-out activity
# Protocol: as §2
# [10] = Ferrous ion binding capacity (o-phenanthroline method); assay type: physicochemical; details: decrease in ferrous concentration per sample concentration, mean ± standard error, at least three tests
# Protocol: The ferrous ion binding capacity was determined using the o-phenanthroline method following the same procedures described by Xu et al.. By plugging the absorbance value into the equation of A = 0.3719C + 0.0002 [36], the ferrous ion concentration (C) can be calculated. The ferrous ion binding capacity (mg/g) was defined as the decrease in ferrous concentration of the reaction solution per sample concentration.
compound,measurement,setting,value
"N[C@@H](CCC(=O)N[C@@H](CS)C(=O)NCC(=O)O)C(=O)O [Glutathione, glutathione, reference compound]",ABTS+ Scavenging Activity (%) Before Gastrointestinal Digestion,ABTS+ quenching ability,79.25 ± 1.67 b %
same,·OH Scavenging Activity (%) Before Gastrointestinal Digestion,[1],"95.56 ± 1.38 a,b %"
same,Superoxide Radical Scavenging Ability (%) Before Gastrointestinal Digestion,[2],90.52 ± 4.97 a %
same,Reducing Power Before Gastrointestinal Digestion,[3],0.675 ± 0.019 a
"[Cl][Fe][Cl] [ferrous chloride, reference compound]",ferrous solubility during gastric digestion,"[4]; 0–90 min, simulated gastric fluid pH 1.9, 37 °C, 175 rpm, soluble ferrous by o-phenanthroline every 30 min, N = 3",relatively stable
same,ferrous solubility during intestinal digestion,"[4]; 91–240 min, intestinal digestive fluid pH 6.8, soluble ferrous by o-phenanthroline, p < 0.05",apparently decreased
GCHHY,pIC50,ACE (from rabbit lungs) [5]; peptide from millet bran glutelin-2,3.83
LPSYVN [literature antioxidant peptide from apricot],antioxidant activity (literature),[6]; peptides from apricot,excellent antioxidant activity
PIIAKMY [literature peptide from millet glutelin-2],gastrointestinal stability (literature),[7]; peptide from millet glutelin-2,good gastrointestinal stability
PMYGGGMV,pIC50,"ACE (from rabbit lungs) [8]; hippuric acid method, HHL substrate, absorbance at 228 nm, read-out: ACE inhibitory activity (IC50)",3.92
same,pIC50,"ACE (from rabbit lungs) [8]; peptide 5 mg/mL, simulated gastric fluid (pepsin 0.40 mg/mL) 37 °C 90 min, then intestinal fluid (pancreatin 0.35 mg/mL, bile salt) pH 7.0, 37 °C 2 h, read-out: ACE inhibitory activity (IC50) after simulated gastrointestinal digestion",3.89
same,stability of ACE inhibition and antioxidant activities during gastrointestinal digestion,[9],stable
SGGEEAAAGP [oligopeptide identified in SAGH-D],Ferrous chelating capacity,[10],18.22 mg/g and 16.14 ± 0.43 g mg/g
SPAIPLP [literature antioxidant peptide from broad bean],antioxidant activity (literature),[6]; peptides from broad bean,excellent antioxidant activity
VIPTEPPHA [literature peptide from Faba beans],pIC50,ACE (from rabbit lungs) [5]; peptide from Faba beans,3.59
same,gastrointestinal stability (literature),[7]; peptide from Faba beans,good gastrointestinal stability
VSRRFIYYL [literature antioxidant peptide from broad bean],antioxidant activity (literature),[6]; peptides from broad bean,excellent antioxidant activity
YLSF [literature antioxidant peptide from apricot],antioxidant activity (literature),[6]; peptides from apricot,excellent antioxidant activity
